Laboratory results published in patent US5538962A, “Antibiotic penem compounds” (Zeneca Limited, priority 1992, dated 1996).
Converted amounts (≈) assume the structure as drawn.

Key:
Test in all cases: MIC, in vitro Diagnostic Sensitivity Test, agar-dilution technique
Type in all cases: cell-based
E. coli TEM = details: Escherichia coli, read-out: minimum inhibitory concentration (MIC)
Text: (§1) The following results were obtained for representative compounds on a standard in vitro test system using Diagnostic Sensitivity Test. The antibacterial activity is described in terms of the minimum inhibitory concentration (MIC) determined by the agar-dilution technique with an inocukum size of 10^4 CFU/spot.

Enterobacter cloacae 029 = details: inoculum 10^4 CFU/spot, read-out: minimum inhibitory concentration (MIC)
Text: as §1

Enterbacter cloacae 108 = details: inoculum 10^4 CFU/spot, read-out: minimum inhibitory concentration (MIC)
Text: as §1

S. aureus 147N = details: Staphylococcus aureus, inoculum 10^4 CFU/spot, read-out: minimum inhibitory concentration (MIC)
Text: as §1

Structure (SMILES) | MIC (E. coli TEM) | MIC (Enterobacter cloacae 029) | MIC (Enterbacter cloacae 108) | MIC (S. aureus 147N)
CC(O)C1C(=O)N2C(C(=O)O)=C(SC3CNC(C(=O)Nc4csc(C(=O)O)c4)C3)SC12 [Example 1, (5R,6S,8R,2'S,4'S)-2-(2-(2-carboxy-4-thienylcarbamoyl)pyrrolidin-4-ylthio)-6-(1-hydroxyethyl)pen-2-em-3-carboxlic acid] | 0.008 µg/mL (≈ 0.0165 µM) | 0.015 µg/mL (≈ 0.0309 µM) | 0.5 µg/mL (≈ 1.03 µM) | 0.125 µg/mL (≈ 0.257 µM)
CO/N=C(\C(=O)N[C@@H]1C(=O)N2C(C(=O)O)=C(CSc3nc(=O)c(=O)[nH]n3C)CS[C@H]12)c1csc(N)n1 [ceftriaxone] | 0.03 µg/mL (≈ 0.0541 µM) | 0.06 µg/mL (≈ 0.108 µM) | 32 µg/mL (≈ 57.7 µM) | 2 µg/mL (≈ 3.61 µM)
